The text below walks through data of patent US5571816A, “Pyrimidines” (Hoechst Aktiengesellschaft, priority 1992, dated 1996).

Data set [1] is described as follows: Solubility in water of salts (and free bases). It is filed as physicochemical. Conditions: for solubility: water.
Data set [2] concerns serum lipoproteins. Nature of the data set: Effect on serum lipoproteins of normolipemic male rats in a subchronic experiment. Particulars: Rattus norvegicus, po, by stomach tube, 7 administrations; for change in vivo at 30 mg/kg: 30 mg/kg/day; for change in vivo at 3 mg/kg: 3 mg/kg/day; for change in vivo at 10 mg/kg: 10 mg/kg/day; for change in vivo at 100 mg/kg: 100 mg/kg/day. It is filed as in vivo. How it is done: 3. In vivo, the increased LDL receptor activity in experimental animals is reflected by reduction in the lipoprotein fractions which can be metabolized by the LDL receptor (apoB/E receptor), i.e. a reduction in the LDL and VLDL levels is observed. The following test was carried out:
Effect on serum lipoproteins of normolipemic male rats in a subchronic experiment
Groups of in each case 10 male rats of the HOE: WISKf (SPF 71) strain with an initial weight above 180 g received once a day (in the morning) the test product or the comparison product in 1% aqueous ®Tylose MH 300 solution by stomach tube (0.5 ml/100 g of body weight); the control group in each case received only the vehicle. The last (7th) administration took place 24 hours before removal of blood and sacrifice. There was free access to food and water during the test. The food was withdrawn 24 hours before the removal of blood.
The serum from all 10 rats in a group was pooled for the analysis of the serum lipoproteins. The serum lipoproteins were separated with a preparative ultracentrifuge (KONTRON TGA 65, Rotor BECKMAN 50.4 Ti).
The following conditions specified by Koga, S., Horwitz, D. L., and Scanu, A. M., Journal of Lipid Research 10, 577 (1969) and Havel, R. J., Eder, H. A., and Bragdon, H. H., J. Clin. Invest. 34, 1345 (1955) were used to separate VLDL and LDL: 1. VLDL: Density<1.006, 40,000 rpm for 16 hours 2. LDL: Density 1.006-1.04, 40,000 rmp for 16 hours
Test kits from BOEHRINGER/Mannheim were used for the enzymatic determination of cholesterol and triglycerides in the separated lipoprotein fractions (cf. Siedel, J., Schlumberger, H., Klose, S., Ziegenhorn, J. and Wahlefeld, A. W., J. Clin. Chem. Clin. Biochem. 19, 838 (1981) and Wahlefeld, A. W., in: H. O. Bergmeier: Methoden der enzymatischen Analyse (Methods of Enzymatic Analysis), 2nd edition, Volume II, Verlag Chemie 1974, page 1878). The proteins were determined by the method of Lowry (Lowry, O. H., Roseborough, N. H., Farr, A. L. and Randell, R. J., J. Biol. Chem. 193, 265 (1951)).
Clofibrate was used as comparison product.

Where [3] appears, read: Table 2, salts of compounds I, temp. by No. [°C]: 1 25.5, 2 23.0, 3 22.4, 4 22.4, 5 22.0, 6 25.0, 7 25.5, 8 25.5, 9 25.5, 10 23.5, 11 23.5, 12 25.0, 13 24.0, 14 23.0, 15 22.0, 16 24.5, 17 22.5, 18 22.0.
Setting [4] is: Table 2, salts of compounds I, temp. by No. [°C]: 1 25.5, 2 23.0, 3 22.4, 4 22.4, 5 22.0, 6 25.0, 7 25.5, 8 25.5, 9 25.5, 10 23.5, 11 23.5, 12 25.0, 13 24.0, 14 23.0, 15 22.0, 16 24.5, 17 22.5, 18 22.0, read-out: Solubility in water, Concentration in % by wt.
[5] abbreviates: Table 1, N-H analogs, temp. by No. [°C]: 1 25.0, 2 23.0, 3 26.2, 4 25.1, 5 25.2, 6 24.1, 7 24.5, 8 24.2, 9 24.2, 10 25.7, 11 25.8, read-out: Solubility in water, Concentration in % by wt.
[6] abbreviates: Table 1, N-H analogs, temp. by No. [°C]: 1 25.0, 2 23.0, 3 26.2, 4 25.1, 5 25.2, 6 24.1, 7 24.5, 8 24.2, 9 24.2, 10 25.7, 11 25.8, read-out: Solubility in water, Molarity × 10^-3.
Setting [7] is: read-out: Serum LDL cholesterol, % change from control at end of treatment.
[8] abbreviates: read-out: Serum LDL protein, % change from control at end of treatment.
Setting [9] is: read-out: Serum VLDL cholesterol, % change from control at end of treatment.
Setting [10] is: read-out: Serum VLDL protein, % change from control at end of treatment.
[11] abbreviates: read-out: Serum VLDL triglycerides, % change from control at end of treatment.
The mark [12] stands for this setting: Table 1, N-H analogs, temp. by No. [°C]: 1 25.0, 2 23.0, 3 26.2, 4 25.1, 5 25.2, 6 24.1, 7 24.5, 8 24.2, 9 24.2, 10 25.7, 11 25.8.

Structures are written as SMILES. Structures can show the parent of a compound that is named as a salt. Where two headings read alike, the source gives them in different places.

Regarding `CC1(C)CN(c2ncc(C(=O)N(CC3CC3)c3cccc(C(F)(F)F)c3)c(N)n2)C(=O)N1` [No. 9 (Table 2)], the “1 part by mass dissolves in ... parts by H2O” value in data set [1] (setting [3]) was 13.1 parts by H2 O. The solubility in data set [1] (setting [4]) came out at 71100 µg/mL.

Regarding `CC1(C)CN(c2ncc(C(=O)Nc3ccc(Cl)c(C(F)(F)F)c3)c(N)n2)C(=O)N1` [No. 5 (Table 1), reference compound], the figures for the solubility in data set [1] (setting [5]) and in data set [1] (setting [6]) were 1000 µg/mL and 2030 µM, respectively.

With `CC(C)CN(C(=O)c1cnc(N2CC(C)(C)NC2=O)nc1N)c1cccc(C(F)(F)F)c1` [Example 36], the change in vivo at 30 mg/kg is -38% in data set [2] (setting [7]); -5% in data set [2] (setting [8]); -65% in data set [2] (setting [9]); -33% in data set [2] (setting [10]); 42% in data set [2] (setting [11]).

As to `CC1NC(=O)N(c2ncc(C(=O)Nc3cccc(C(F)(F)F)c3)c(N)n2)C1C` (stereo not shown) [No. 11 (Table 1), reference compound], the “1 part by mass dissolves in ... parts of H2O” value in data set [1] (setting [12]) is on record as 277 parts of H2 O. Besides, the results for the solubility in data set [1] (setting [5]) and in data set [1] (setting [6]) were 3600 µg/mL and 8380 µM, respectively.

As for `CC1(C)CN(c2ncc(C(=O)Nc3cccc(C(F)(F)F)c3)c(N)n2)C(=O)N1` [4-amino-2-(4,4-dimethylimidazolidin-2-on-1-yl)pyrimidine-5-carboxylic acid N-(3-trifluoromethylphenyl)amide, reference compound], the “solubility in water, in words” value in data set [1] (categories of the Deutsches Arzneibuch) is “exceptionally slightly soluble”.

In the case of `CCCC1(C)CN(c2ncc(C(=O)Nc3ccc(Cl)c(C(F)(F)F)c3)c(N)n2)C(=O)N1` (stereo not shown) [No. 9 (Table 1), reference compound], the solubility in data set [1] (setting [5]) amounted to 1300 µg/mL; in data set [1] (setting [6]), 2800 µM.

Regarding `CC1(C)CN(c2ncc(C(=O)Nc3ccc(F)c(C(F)(F)F)c3)c(N)n2)C(=O)N1` [No. 3 (Table 1), reference compound], the “1 part by mass dissolves in ... parts of H2O” value in data set [1] (setting [12]) is given as 703 parts of H2 O. In addition, the solubility in data set [1] (setting [5]) turned out to be 1400 µg/mL; in data set [1] (setting [6]) it was 3170 µM.

As for `CC(C)CC(C)N(C(=O)c1cnc(N2CC(C)(C)NC2=O)nc1N)c1cccc(C(F)(F)F)c1` (stereo not shown) [Example 38], in data set [1] (setting [3]), the “1 part by mass dissolves in ... parts by H2O” value was found to be 15.3 parts by H2 O. Moreover, in data set [1] (setting [4]), the solubility is 61300 µg/mL.

Take `CCCCN(C(=O)c1cnc(N2CC(C)(C)NC2=O)nc1N)c1cccc(C(F)(F)F)c1` [Example 6, 4-amino-2-(4,4-dimethyl-2-oxo-1-imidazolidinyl)pyrimidine-5-carboxylic acid N-butyl-N-(3-trifluromethylphenyl)amide hydrochloride]: the change in vivo at 3 mg/kg in data set [2] (setting [7]) is -24%; in data set [2] (setting [8]) it was -3%; in data set [2] (setting [9]) it was -35%; in data set [2] (setting [10]), -12%. The change in vivo at 10 mg/kg in data set [2] (setting [7]) is -20%; in data set [2] (setting [8]), -62%; in data set [2] (setting [9]), -35%; in data set [2] (setting [10]) it was -15%. In addition, the change in vivo at 30 mg/kg in data set [2] (setting [7]) is -62%; in data set [2] (setting [8]) it was -36%; in data set [2] (setting [9]), 41%; in data set [2] (setting [10]), -41%; in data set [2] (setting [11]), -69%.

For the compound `CN(C(=O)c1cnc(N2CC(C)(C)NC2=O)nc1N)c1ccc(Br)c(C(F)(F)F)c1` [Example 30], the change in vivo at 10 mg/kg in data set [2] (setting [7]) was -25%; in data set [2] (setting [8]), -19%; in data set [2] (setting [9]), -29%; in data set [2] (setting [10]), -36%; in data set [2] (setting [11]) it was 7%.

`CC1(C)CN(c2ncc(C(=O)Nc3cccc(C(F)(F)F)c3)c(N)n2)C(=O)N1` [No. 2 (Table 1), reference compound]: the “Solubility in water, Molarity × 10^-3” value in data set [1] (setting [12]) is 0.90 Molarity × 10^-3.

As to `CCOC(=O)C(C)(C)Oc1ccc(Cl)cc1` [Clofibrate, reference compound], the change in vivo at 100 mg/kg in data set [2] (setting [7]) is -31%; in data set [2] (setting [8]) it was -3%; in data set [2] (setting [9]), -51%; in data set [2] (setting [10]), -30%; in data set [2] (setting [11]), -34%.

On to `CC1(C)CN(c2ncc(C(=O)N(CC3CC3)c3cc(C(F)(F)F)ccc3F)c(N)n2)C(=O)N1` [Example 41], for which the change in vivo at 10 mg/kg is -73% in data set [2] (setting [7]); -48% in data set [2] (setting [8]); -100% in data set [2] (setting [9]); -52% in data set [2] (setting [10]); -68% in data set [2] (setting [11]). Also, the change in vivo at 30 mg/kg is -66% in data set [2] (setting [7]); -36% in data set [2] (setting [8]); -100% in data set [2] (setting [9]); -45% in data set [2] (setting [10]); -80% in data set [2] (setting [11]).

With `CN(C(=O)c1cnc(N2CC(C)(C)NC2=O)nc1N)c1cc(C(F)(F)F)ccc1Cl` [Example 29], the change in vivo at 30 mg/kg in data set [2] (setting [7]) is -51%; in data set [2] (setting [8]), -27%; in data set [2] (setting [9]), -80%; in data set [2] (setting [10]) it was 40%; in data set [2] (setting [11]) it was -70%.

Consider `CCCCN(C(=O)c1cnc(N2CCNC2=O)nc1N)c1cccc(C(F)(F)F)c1` [Example 55, 4-amino-2-(2-oxo-1-imidazolidinyl)pyrimidine-5-carboxylic acid N-butyl-N-(3-trifluoromethylphenyl)amide hydrochloride], for which the change in vivo at 30 mg/kg in data set [2] (setting [7]) is -29%; in data set [2] (setting [8]) it was -9%; in data set [2] (setting [9]), -14%; in data set [2] (setting [10]) it was -18%; in data set [2] (setting [11]), -20%.
